Measurements taken from paper PMC12670405, “Second-Generation AURKA-Targeting PROTACs: Structural Optimization toward in Vivo Degradation in Neuroblastoma” (Journal of Medicinal Chemistry, 2025).
Like-named read-outs stand apart in the source and are kept apart here.

What was measured:
[1] = system: NGP; test: IncuCyte live-cell imaging, antiproliferative effect; assay type: cell-based; details: Homo sapiens, 72 h
Text: Human neuroblastoma cell lines NGP, IMR-32, SJNB-8, SK-N-BE(2)-C, SJNB-1, SK-N-SH and SK-N-AS, as well as benign immortalized cell lines RPE and HEK293T were either bought commercially or obtained through research laboratories. […] Screening for mycoplasma contamination occurred routinely on the cells. Human neuroblastoma cell lines SH-SY5Y_shABCB1 & SH-SY5Y_shNTC were generated by transduction with pLKO.1-ABCB1_TRCN0000059683 shRNA (Sigma MISSION SHCLND) or pLKO.1-puro NT shRNA (Sigma MISSION SHC002) vectors respectively (Supplementary Table S6), packaged using Lenti-X293T (Clontech). Transduced cells were selected with 2 μg/mL puromycin. These cells were cultured in DMEM 4.5 g/L D-Glucose, L-Glutamine and 110 mg/L Sodium Pyruvate (Gibco, #11995065) supplemented with 10% fetal bovine serum, 1× Antibiotic-Antimycotic solution (Sigma-Aldrich, #A5955) and 1× MEM nonessential amino acids (Sigma-Aldrich, #M7145). Incubation of all cells occurred at 37 °C and 5% CO2.
Neuroblastoma cells were seeded in 384-well plates at different densities ranging from 1200 to 5000 cells/well and allowed to adhere overnight. RPE and HEK293T were seeded at 200 and 600 cells/well, respectively. Compound treatment was performed using the D300e Digital Dispenser (Tecan) in duplicate or triplicate and cell confluency was monitored over time using the IncuCyte Live-cell imaging system (Sartorius). […] Mean normalized confluences were calculated from 3 individual experiments.
All dose–response curves were computed on GraphPad Prism using the Variable Slope (four parameters) equation. Absolute half-maximal degradation (DC50), growth inhibitory (GI50) and enzymatic inhibitory (IC50) concentrations, as well as inhibition constants (Ki) were derived from dose–response curves via interpolation. Statistical tests were performed on GraphPad Prism and detailed in the figure legends. Unless otherwise stated, “n” in the figure legends indicates the number of independent experiments conducted at different times.

[2] = molecular target: T1, AURKA (Homo sapiens, UniProt O14965); test: AURKA degradation, Simple Western; assay type: cell-based; parameters: Representative Western blot showing levels of endogenous proteins MDR1, MYCN, AURKA, and CRBN in untreated cell lines; endogenous in cells; host or cells: NGP, IMR-32, SJNB-8, SK-N-BE(2)-C, SK-N-SH, SK-N-AS, SJNB-1, RPE, HEK293T; details: for pDC50: AURKA degradation; for DC50: read-out: AURKA DC50;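 on AURKA Degradation 24h @1000nM: measured in NGP neuroblastoma cells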;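 on AURKA Degradation 24h @100nM: measured in NGP neuroblastoma cells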
T1 sequence (O14965 1-403): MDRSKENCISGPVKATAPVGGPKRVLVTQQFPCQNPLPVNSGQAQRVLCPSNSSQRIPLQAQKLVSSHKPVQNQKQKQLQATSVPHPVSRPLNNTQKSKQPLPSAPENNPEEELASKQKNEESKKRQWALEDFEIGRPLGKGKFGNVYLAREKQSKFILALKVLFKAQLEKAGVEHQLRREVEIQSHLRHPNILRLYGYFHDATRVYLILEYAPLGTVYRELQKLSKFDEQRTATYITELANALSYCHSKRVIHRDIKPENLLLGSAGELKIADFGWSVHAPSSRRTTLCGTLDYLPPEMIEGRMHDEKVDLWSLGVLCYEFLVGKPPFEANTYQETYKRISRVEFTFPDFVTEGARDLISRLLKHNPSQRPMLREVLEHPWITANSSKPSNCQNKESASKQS
Protocol: Cells were seeded in T-25 flasks at different densities ranging from 1 to 2 million cells per flask and allowed to adhere for 1–2 days. In experiments involving compound treatment, this was done by medium replacement containing the compound(s) of interest in their corresponding concentrations. In competition binding experiments, cells were first pretreated with an excess of MK-5108, thalidomide or MG-132 for 1 h by shaking gently at room temperature prior to addition of SK4454 or SK5527. All samples were normalized to contain the same percentage of DMSO as the negative DMSO controls. Cells were harvested on ice at their respective time points by scraping, washed with ice-cold PBS to collect remaining cells, and centrifuged (2500 rpm, 4 °C). A second washing and centrifugation step was performed prior to collection of the final cell pellets which were then snap-frozen in liquid nitrogen and kept frozen at −80 °C until further processing. Lysis of cell pellets occurred in cold RIPA buffer (0.5% w/v Sodium Deoxycholate, 150 mM NaCl, 50 mM TrisHCl pH 7.5, 0.1% w/v SDS, 1% w/v NP-40) supplemented with protease and phosphatase inhibitors (Roche, #11836145001, #04906845001) by rotating gently at 4 °C for 1h, followed by a centrifugation step for 10 min (10,000 rpm, 4 °C). The supernatant was collected and concentrations of the obtained protein lysates were measured using the Pierce BCA Protein Assay Kit (Thermo Fisher Scientific, #23227).
Simple Western analyses were performed with the Wes instrument (Bio-Techne) using the 12–230 kDa Wes Separation module and the EZ standard pack reagent 1 (Biotechne, #SM-W001, #PS-ST01EZ-8) following the manufacturer’s protocol. Protein lysates were loaded at 0.8 μg/μL under denaturing conditions (0.2 μg/μL for MYCN detection). Chemiluminescence peaks were generated by the Compass Software (Bio-Techne) and the area under the peaks calculated using the Gaussian fit method. Per lane, quantified data were always normalized to that of the loading control (Vinculin) prior to calculating fold changes relative to the negative DMSO control. Mean fold changes are calculated from 3 individual experiments. A list of the primary and secondary antibodies used can be found in the Supporting Information (Supplementary Table S7).
Graphs were generated using GraphPad Prism Software (version 10.1.2) or RStudio (R-4.3.2). All dose–response curves were computed on GraphPad Prism using the Variable Slope (four parameters) equation. Absolute half-maximal degradation (DC50), growth inhibitory (GI50) and enzymatic inhibitory (IC50) concentrations, as well as inhibition constants (Ki) were derived from dose–response curves via interpolation. Statistical tests were performed on GraphPad Prism and detailed in the figure legends. Unless otherwise stated, “n” in the figure legends indicates the number of independent experiments conducted at different times.

SMILES | AURKA Degradation 24h @100nM [2] | AURKA Degradation 24h @1000nM [2] | pDC50 [2] | DC50 [2] | AURKA degradation activity (in words) ([2]; NGP, 24 h treatment) | Dmax ([2]; NGP, 24 h treatment) | GI50 ([1]; read-out: GI50 72h, 72h) | GI50 ([1]; read-out: pGI50 (converted))
Cc1cc(Nc2ccc(F)c(CC3(C(=O)N4CCC(F)(C(=O)N5CCN(c6ccc(N7CCC(=O)NC7=O)cn6)CC5)CC4)CCN(Cc4cccc(Cl)c4F)CC3)n2)n[nH]1 [PROTAC 34] | 83 | 91 |  |  |  |  | 84 nM | 83.2 nM
Cc1cc(Nc2ccc(F)c(CC3(C(=O)N4CC(CN5CCN(c6ccc(N7CCC(=O)NC7=O)cn6)CC5)C4)CCN(Cc4cccc(Cl)c4F)CC3)n2)n[nH]1 [PROTAC 31] | 80 | 89 |  |  |  |  | 98 nM | 97.7 nM
Cc1cc(Nc2ccc(F)c(CC3(C(=O)N4CCC(CN5CCC(c6ccc(N7CCC(=O)NC7=O)cn6)CC5)CC4)CCN(Cc4cccc(Cl)c4F)CC3)n2)n[nH]1 [PROTAC 36] | 58 | 78 |  |  |  |  | 60 nM | 60.3 nM
O=C1CCC(N2C(=O)c3ccc(N4CCN(C(=O)COCCOCCNC(=O)[C@]5(Cc6cccc(Nc7nccs7)n6)CC[C@@H](Oc6cccc(Cl)c6F)CC5)CC4)cc3C2=O)C(=O)N1 (stereo partly shown) [PROTAC 9] | 64 | 83 |  |  |  |  | 112 nM | 112 nM
O=C1CCC(N2C(=O)c3ccc(OCCN4CCN(C(=O)[C@]5(Cc6cccc(Nc7nccs7)n6)CC[C@@H](Oc6cccc(Cl)c6F)CC5)CC4)cc3C2=O)C(=O)N1 (stereo partly shown) [PROTAC 10] | 72 | 80 |  |  |  |  | 52 nM | 52.5 nM
Cc1cc(Nc2ccc(F)c(CC3(C(=O)N4CCC(F)(C(=O)N5CCC(c6ccc(N7CCC(=O)NC7=O)cn6)CC5)CC4)CCN(Cc4cccc(Cl)c4F)CC3)n2)n[nH]1 [PROTAC 38] | 82 | 90 |  |  |  |  | 146 nM | 145 nM
O=C1CCN(c2ccc(N3CCN(C4CCN(C(=O)[C@]5(Cc6cccc(Nc7nccs7)n6)CC[C@@H](Oc6cccc(Cl)c6F)CC5)C4)CC3)nc2)C(=O)N1 (stereo partly shown) [PROTAC 26] | 71 | 71 | 8,3 | 5 nM |  |  | 45 nM | 44.7 nM
O=C1CCC(Nc2ccc(N3CCN(C(=O)[C@]4(Cc5cccc(Nc6nccs6)n5)CC[C@@H](Oc5cccc(Cl)c5F)CC4)CC3)cc2)C(=O)N1 (stereo partly shown) [PROTAC 12] | 12 | < 0 |  |  | failed to reduce AURKA levels and instead led to its upregulation |  | 715 nM | 708 nM
Cc1cc(Nc2ccc(F)c(CC3(C(=O)N4CCC(CN5CCC(c6ccc(CN7CCC(=O)NC7=O)cn6)CC5)CC4)CCN(Cc4cccc(Cl)c4F)CC3)n2)n[nH]1 [PROTAC 30] | 42 | 59 |  |  | weak degradation potency | 59% | 158 nM | 158 nM
O=C1CCC(N2C(=O)c3cccc(N4CCN(C(=O)COCCOCCNC(=O)[C@]5(Cc6cccc(Nc7nccs7)n6)CC[C@@H](Oc6cccc(Cl)c6F)CC5)CC4)c3C2=O)C(=O)N1 (stereo partly shown) [PROTAC 2] | 70 | 81 |  |  |  |  | 72 nM | 72.4 nM
Cc1cc(Nc2ccc(F)c(CC3(C(=O)N4CC(N5CCC(c6ccc(N7CCC(=O)NC7=O)cn6)CC5)C4)CCN(Cc4cccc(Cl)c4F)CC3)n2)n[nH]1 [PROTAC 35] | 62 | 69 |  |  |  |  | 332 nM | 331 nM

The next lines start with results.

AURKA Degradation 24h @100nM [2] | AURKA Degradation 24h @1000nM [2] | pDC50 [2] | DC50 [2] | AURKA degradation activity (in words) ([2]; NGP, 24 h treatment) | Dmax ([2]; NGP, 24 h treatment) | SMILES | GI50 ([1]; read-out: GI50 72h, 72h) | GI50 ([1]; read-out: pGI50 (converted))
76 | 75 |  |  |  |  | O=C1CCC(N2C(=O)c3ccc(N4CCN(CCOCCOCCNC(=O)[C@]5(Cc6cccc(Nc7nccs7)n6)CC[C@@H](Oc6cccc(Cl)c6F)CC5)CC4)cc3C2=O)C(=O)N1 (stereo partly shown) [PROTAC 8] | 56 nM | 56.2 nM
68 | 91 | 7,9 | 12.5 nM |  |  | O=C1CCC(Nc2ccc(N3CCN(CCNC(=O)[C@]4(Cc5cccc(Nc6nccs6)n5)CC[C@@H](Oc5cccc(Cl)c5F)CC4)CC3)cc2)C(=O)N1 (stereo partly shown) [PROTAC 13] | 30 nM | 29.5 nM
39 | 75 |  |  | only weak AURKA-degrading activity |  | O=C1CCC(Nc2ccc(N3CCN(C(=O)COCCOCCNC(=O)[C@]4(Cc5cccc(Nc6nccs6)n5)CC[C@@H](Oc5cccc(Cl)c5F)CC4)CC3)cc2)C(=O)N1 (stereo partly shown) [PROTAC 16] | 78 nM | 77.6 nM
83 | 93 |  |  |  |  | O=C1CCC(Nc2ccc(N3CCN(CC4CCN(C(=O)[C@]5(Cc6cccc(Nc7nccs7)n6)CC[C@@H](Oc6cccc(Cl)c6F)CC5)CC4)CC3)c(F)c2)C(=O)N1 (stereo partly shown) [PROTAC 19] | 53 nM | 52.5 nM
76 | 82 |  |  |  |  | O=C1CCC(N2C(=O)c3ccc(N4CCN(CCOCCNC(=O)[C@]5(Cc6cccc(Nc7nccs7)n6)CC[C@@H](Oc6cccc(Cl)c6F)CC5)CC4)cc3C2=O)C(=O)N1 (stereo partly shown) [PROTAC 6] | 64 nM | 63.1 nM
59 | 88 | 7,29 | 51.1 nM |  |  | O=C1CCC(Nc2ccc(N3CCN(CC4CN(C(=O)[C@]5(Cc6cccc(Nc7nccs7)n6)CC[C@@H](Oc6cccc(Cl)c6F)CC5)C4)CC3)cc2)C(=O)N1 (stereo partly shown) [PROTAC 17] | 39 nM | 38.9 nM
76 | 75 |  |  |  |  | O=C1CCC(N2C(=O)c3ccc(N4CCN(C(=O)CNC(=O)[C@]5(Cc6cccc(Nc7nccs7)n6)CC[C@@H](Oc6cccc(Cl)c6F)CC5)CC4)cc3C2=O)C(=O)N1 (stereo partly shown) [PROTAC 5] | 51 nM | 51.3 nM
